{
  "source": "patent US10233174B2",
  "about": "(THERAVANCE BIOPHARMA R&D IP, LLC, priority 2017, dated 2019)",
  "target": "β-glucuronidase (Escherichia coli, UniProt P05804)",
  "sequence (P05804 whole entry)": "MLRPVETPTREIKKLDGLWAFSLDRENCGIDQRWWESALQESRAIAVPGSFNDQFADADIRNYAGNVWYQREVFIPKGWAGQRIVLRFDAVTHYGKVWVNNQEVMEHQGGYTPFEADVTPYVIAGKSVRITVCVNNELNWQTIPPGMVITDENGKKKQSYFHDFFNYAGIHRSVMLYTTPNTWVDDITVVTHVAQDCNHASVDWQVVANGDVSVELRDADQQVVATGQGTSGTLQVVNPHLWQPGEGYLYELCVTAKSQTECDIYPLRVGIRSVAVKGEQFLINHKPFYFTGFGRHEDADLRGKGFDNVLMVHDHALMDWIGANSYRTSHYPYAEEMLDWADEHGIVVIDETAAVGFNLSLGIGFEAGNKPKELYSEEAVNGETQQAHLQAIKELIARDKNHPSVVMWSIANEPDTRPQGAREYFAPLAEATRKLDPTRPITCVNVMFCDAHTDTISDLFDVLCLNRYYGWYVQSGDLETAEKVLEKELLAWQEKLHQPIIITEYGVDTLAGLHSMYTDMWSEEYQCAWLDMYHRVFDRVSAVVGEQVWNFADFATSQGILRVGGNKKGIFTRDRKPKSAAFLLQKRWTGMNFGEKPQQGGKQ",
  "assay": "Assay 11: Release of H2S and Tofacitinib (incubation with β-glucuronidase and monobromobimane)",
  "format": "in vitro ADME",
  "details": "50 μM compound 1, β-glucuronidase 100 units/mL, MBB 100 μM, pH 7.4, 37° C.",
  "experimental": "The method used to detect H2S was previously described in Tan et al., Nature Scientific Reports, 2017, 7:46278, DOI: 10.1038/srep46278.\nCompound 1 (50 μM) was incubated with β-glucuronidase (100 units/mL) and monobromobimane (MBB, 100 μM) in potassium phosphate buffer pH 7.4 (100 mM) for 60 min at 37° C. In addition, incubations were carried out with and without a) β-glucuronidase and b) MBB as negative control. Incubation of SN38-Glucuronide was also carried out with β-glucuronidase as a positive control for β-glucuronidase activity. The reactions were terminated at 60 min by the addition of three volumes of ice-cold acetonitrile to the incubation mixture. The incubation samples were centrifuged (4° C., 2200×g, 10 minutes) and the supernatants were transferred to amber HLPC vials. All samples were stored at 4° C. until the analysis. The samples were analyzed using a Thermo Orbitrap LC-MS/MS system.\nH2S was trapped using monobromobimane (MBB) to form sulfide dibimane (SDB).",
  "data": [
    {"smiles": "C[C@@H]1CCN(C(=O)CC#N)C[C@@H]1N(C)c1ncnc2c1ccn2C(=O)N(C)CCN(C)C(=S)OCc1ccc(O[C@@H]2O[C@H](C(=O)O)[C@@H](O)[C@H](O)[C@H]2O)c([N+](=O)[O-])c1", "note": "[Compound 1, (2S,3S,4S,5R,6S)-6-(4-((((2-(4-(((3R,4R)-1-(2-cyanoacetyl)-4-methylpiperidin-3-yl)(methyl)amino)-N-methyl-7H-pyrrolo[2,3-d]pyrimidine-7-carboxamido)ethyl)(methyl)carbamothioyl)oxy)methyl)-2-nitrophenoxy)-3,4,5-trihydroxytetrahydro-2H-pyran-2-carboxylic acid]", "values": [
      {"measurement": "% (MS Peak Area) (60 min) of compound 1 (Parent) remaining", "result": 0, "unit": "%"}
    ]}
  ]
}
